# Measurements taken from patent publication US20230107216A1, “PANTETHEINE DERIVATIVES AND USES THEREOF” (Comet Therapeutics, Inc., priority 2018, published 2023).
# Like-named read-outs stand apart in the source and are kept apart here.
# Legend:
# HepG2 cells [1] = experiment: MitoBiogenesis In-Cell ELISA (COX-I, SDH-A); assay type: cell-based; conditions: Homo sapiens, 168 h, 50 uM, 7 days, read-out: % increase in Mitochondrial Biogenesis
# Description: We determined the effect of compounds of the present disclosure on the levels of two mitochondrial proteins using MitoBiogenesis™ In-Cell ELISA Kit (Abcam ab110216) according to manufacturer's instructions. The two proteins are each subunits of a different oxidative phosphorylation enzyme complex, one protein being subunit I of Complex IV (COX-1), which is mitochondrial (mt)DNA-encoded, and the other being the 70 kDa subunit of Complex II (SDH-A), which is nuclear (n)DNA-encoded. Complex IV includes several proteins which are encoded in the mitochondrion, while the proteins of Complex II are entirely encoded in the nucleus. HepG2 cells (ATCC, HB-8065) were cultured (5% CO2 at 37° C.) and plated in Poly-D-Lysine 384-Well plate (Corning, 356663) at a density of 40,000 cells/mL in 50 μL. Culture and assay media consisted of DMEM (Gibco, 11995-065) supplemented with 1% Penicillin-Streptomycin and 10% FBS (Hyclone, SV30087.03). Cells were allowed to settle for 30 min at room temperature and further incubated overnight (37° C. and 5% CO2) for adherence. Next day, 50-5 μM of the negative control Chloramphenicol (Selleck, S1677), test compounds (50-10 μM) and vehicle DMSO (0.2%) were added at the recommended volumes to the 384-well plate for 7 days without media change using a Tecan compound dispenser. All the solutions and wash buffers were prepared and dispensed according to manufacturer's volumes for a 384-well plate format. Effects of compounds on mtDNA-encoded protein expression (COX-I) and nuclear DNA-encoded mitochondrial protein expression (SDH-A) were expressed as relative signal (nm) to vehicle of a n=2 per conditions.
# [2] = system: Pkd1−/− mouse inner medullary collecting duct cells (mIMRFNPKD 5E4); experiment: mPKD 3D cyst swelling assay (forskolin-induced); assay type: cell-based; conditions: after 72 hours of forskolin exposure
# Procedure: Cell model and control compounds. mIMCD3 WT cells were obtained via ATCC and modified to create the mIMRFNPKD 5E4 cell line, which has a CRISPR-Cas mediated knockout for Pkd1 as described SLAS Discov. 2017 September; 22(8):974-984. doi: 10.1177/2472555217716056. Cells were cultured in DMEM/F12 (Sigma)+10% FBS (Sigma)+0.5% Pen/Strep (Gibco)+1% GluMax (Gibco). Control compounds used were forskolin (Calbiochem, 344282), Rapamycin (Selleckchem, S1039) and Staurosporin (Selleckchem, S1421).
# The 3D mouse cyst swelling assay was performed with Pkd1^−/− mouse inner medullary collecting duct cells (mIMRFNPKD 5E4). The cyst swelling protocol that was used was described previously (SLAS Discov. 2017 September; 22(8):974-984. doi: 10.1177/2472555217716056), with further optimization.
# 3D culture and compound exposure. mIMRFNPKD 5E4 cells were mixed with Cyst-Gel (OcellO BV). 15 μL of cell-gel mix was pipetted to 384-well plates (Greiner μClear, Greiner Bio-One B.V.) using a CyBio Felix 96/60 robotic liquid dispenser (Analyik Jena AG). Gel-cell mix was plated at a final cell density of 2250 cells per well. After gel polymerization at 37° C. for 30 minutes, 33 μL culture medium was added to each well. Cells were grown in the gel for 96 hours, after which the cells were co-exposed with forskolin (Calbiochem, 344282) and one the following molecules: reference compound Rapamycin (SelleckChem, S1039), toxic control compound Staurosporin (SelleckChem, S1421) or test compounds.
# Sample processing. After 72 hours, cultures were fixed with 4% Formaldehyde (Sigma Aldrich) and simultaneously permeabilized with 0.2% Triton-X100 (Sigma Aldrich) and stained with 0.25 μM rhodamine-phalloidin (Sigma Aldrich) and 0.1% Hoechst 33258 (Sigma Aldrich) in 1×PBS (Sigma Aldrich) for 2 days at 4° C., protected from light. After fixation and staining, plates were washed with 1×PBS, sealed with a Greiner SilverSeal (Greiner Bio-One B.V.) and stored at 4° C. prior to imaging.
# Imaging and image analysis. Imaging was done using Molecular Devices ImageXpress Micro XLS (Molecular Devices) with a 4× NIKON objective. For each well around 35 images in the Z-direction were made for both channels, capturing the whole z-plane in each image. Image analysis was performed using Ominer™ software (OcellO BV). Cysts were segmented using detection of Hoechst-stained nuclei and Rhodamine-phalloidin-stained cellular f-actin. Cyst area was determined by calculating for the area in px of each object in every in-focus plain. This was averaged per well. (N represented is number of wells) Fraction of apoptotic nuclei as an indicator of toxicity was calculated as the amount of nuclei without actin signal relative to the total amount of nuclei, both as count-measurements. Statistics was done using KNIME Analytics Platform (Konstanz, Germany, http://www.knime.org/), graphs were prepared in GraphPad Prism 6 (GraphPad Software, La Jolla, Calif.).
# HepG2 cells [3] = experiment: Mitochondrial membrane potential (MITO-ID MP detection Kit); assay type: cell-based; conditions: Homo sapiens, 168 h, 10 uM, 7 days, read-out: % decrease in Mitochondrial Membrane Potential
# In short: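 Cells plated at 160000 cells/mL in DMEM with 10% FBS and 1% Pen-Strep, adhered overnight at 37° C., 5% CO2. Exposure to test compounds (50-10 μM) or 0.2% DMSO for 7 days without media change; membrane potential measured with MITO-ID MP detection kit per manufacturer.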
# [4] = system: Venular Endothelial cells (HUVEC) (4H system); experiment: BioMAP 4H system (IL-4 and histamine); assay type: cell-based, human; conditions: Homo sapiens, HUVEC, 24 h; 1 uM; procedure of Example 826; read-out: % decrease in VEGFRII
# [5] = system: Peripheral blood mononuclear cells co-cultured with venular endothelial cells (HUVEC) (LPS system); experiment: BioMAP LPS system; assay type: cell-based, human; conditions: procedure of Example 827
# HepG2 cells [6] = experiment: Glucose uptake (Glucose Uptake-Glo); assay type: cell-based; conditions: Homo sapiens, 50 uM, read-out: % increase in Glucose Uptake
# [7] = system: Dermal fibroblasts (HDF3CGF system); experiment: BioMAP HDF3CGF system (IL-1β, TNFα, IFNγ, EGF, bFGF, PDGF-BB); assay type: cell-based, human
# [8] = system: Coronary artery smooth muscle cells (CASM3C system); experiment: BioMAP CASM3C system (IL-1β, TNFα, IFNγ); assay type: cell-based, human; conditions: 10 uM
# [9] = system: Bronchial epithelial cells co-cultured with dermal fibroblast (BF4T system); experiment: BioMAP BF4T system (TNFα and IL-4); assay type: cell-based, human; conditions: Homo sapiens, 24 h; 10 uM; procedure of Example 830; read-out: % increase in VCAM-1
# [10] = system: Peripheral blood mononuclear cells co-cultured with B-cells (BT system); conditions: 1 uM; procedure of Example 829
# [11] = system: Peripheral blood mononuclear cells co-cultured with B-cells (BT system); experiment: cells; conditions: Homo sapiens, 72 h, read-out: % increase in sIL-6
# [12] = system: primary fibroblasts (healthy controls and PA, MMA, BCKDK, PDH, VLCAD, LS, PC, GA, VLCFA, KSS, FXN, HD); experiment: Measurement of ROS (H2DCFDA) in primary fibroblasts; assay type: cell-based, human; conditions: Homo sapiens, procedure Example 812, Assay Condition C, read-out: Decreased ROS by at least 10%
# In short: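 Patient and healthy-control primary fibroblasts switched to supplemented DMEM 24 h before assay, then treated with compound (10 μM) plus H2DCFDA (22 μM) for 2 h (PA, MMA lines) or 24 h (other lines). Kinetic fluorescence at 492/527 nm over 60 min; only live cells analysed.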
# [13] = system: oligodendrocyte precursor cells (OPC) in mixed brain cultures; experiment: Oligodendrocyte precursor cells (OPC) proliferation, O4+ cell count; assay type: cell-based, mouse; conditions: 10 uM
# Procedure: The effect of compounds of the present disclosure was determined on oligodendrocyte precursor cells proliferation (OPC).
# Cell culture. Brains of wild type mice (whole brain from 1 or 2 mouse pups) less than postnatal day (P) 2 were isolated and cultured. Briefly, following removal of the meninges, cells were dissociated with 0.25% EDTA/CMF-DMEM and 1% Trypsin (1:1), plated at a density of 75,000 cells/on 0.1 mg/ml poly-L-lysine coated borosilicate glass coverslips in 24-well plates, grown in OPC differentiation media (Oligo media) consisting of DMEM/F12 (Invitrogen 21331-020) supplemented with 1% FBS, 1% N2 Neural Supplement (Invitrogen 17502-048) and PDGF receptor alpha growth factor (Invitrogen 17502-048). Cells were fed every other day and allowed to grow for 7 days in vitro (DIV).
# OPCs treatment with compounds of the present disclosure. Cells were treated with compounds of the present disclosure (50-10 μM) or vehicle (0.1% DMSO) starting at 7 DIV. Media was replaced daily with freshly made working solutions of compounds or vehicle for either 48 h (9 DIV total) or 96 h (11 DIV). The 48 h group consisted of 1 coverslip per condition. The 96 h group was treated in duplicate.
# Fresh aliquots of compounds of the present disclosure were made up on the day of treatment, briefly, a 50 mM stock was thawed and used to make up fresh 50 μM working solution in Oligo Media. The fresh 50 μM working solution was diluted further in Oligo Media to make 10 μM working solution. Vehicle controls was made up in fresh Oligo Media using the appropriate amount of vehicle (DMSO). Coverslips were stored in clean 24-well plates at 4° C. until fixed-staining. Cells were imaged using Leica DM5500 fluorescent microscope with LAS-X software.
# Exposure settings were maintained at the same rate across compounds of the same time-point. Cells were imaged at 20× and 40× magnifications. At least 5 images were taken per condition. Most conditions had at least 5 images that were counted. 20× images were utilized for counting DAPI (cell nuclei) and O4+ cells.
# Total DAPI per image for all images was counted using ImageJ as here indicated. • Image was converted to 8 bit • Blue Channel (DAPI) was automatically thresholded by default ImageJ settings • Image noise was reduced by ImageJ>Process>Noise>Despeckle • ImageJ>Process>Binary>Watershed was used to automatically separate merged cell nuclei • ImageJ>Analyze>Analyze Particles was used to obtain final count of DAPI per image • Total number of DAPI-positive cells
# Total number of O4+ cells per 20× image was manually counted using Adobe Photoshop: • All cell bodies of OPCs with underlying DAPI stain were counted as an O4+ cell • Total number of O4+ cells were recorded in Excel Spreadsheet O4+ cells in mixed brain cultures of wild type mice <P2 treated with compounds of the present disclosure or vehicle were quantified per condition (time point and concentration). The following formula was used to normalize the total cell counts within a compound as well as across compounds treated for the same duration (48h vs. 96h):
# (number of O4+cell counts in Compound X/Average DAPI count for Compound X)*Total Average DAPI count across compounds of same Time Point
# Values were plotted as Scatter Interval plots in Origin. Each data point represents a single image from which O4+ cell values were obtained. Data are presented as mean±S.E.
# Images are at 20× magnification and represent 1-2 coverslips per group. Scale bar, 50 μm.
smiles,measurement,setting,value
COC(=O)CCC(=O)SCCNC(=O)CCNC(=O)[C@H](O)C(C)(C)COP1(=O)OCCO1 [Compound 1308],activation at 50 µM,HepG2 cells [1],> 5%
same,% prevention of forskolin-induced cyst swelling,[2]; 10 uM,≥10%
same,inhibition at 10 µM,HepG2 cells [3],> 50%
"COC(=O)CCC(=O)CC(=O)SCCNC(=O)CCNC(=O)[C@H](O)C(C)(C)COC(C)=O [Compound 141, methyl 6-[(2-[3-[(2R)-4-(acetyloxy)-2-hydroxy-3,3-dimethylbutanamido]propanamido]ethyl)sulfanyl]-4,6-dioxohexanoate]",inhibition at 1 µM,[4],≥ 20%
same,% decrease in M-CSF,[5]; 1 uM,≥10%
same,inhibition at 10 µM,"[5]; Homo sapiens, HUVEC, 24 h, 10 uM, read-out: % decrease in sPGE2",≥ 10%
same,activation at 10 µM,"[5]; Homo sapiens, HUVEC, 24 h, 10 uM, read-out: % increase in sTNFα",≥ 10%
same,activation at 50 µM,HepG2 cells [6],≥ 30%
same,% prevention of forskolin-induced cyst swelling,[2]; 50 uM,≥10%
same,% decrease in Collagen I,"[7]; 1 uM, procedure of Example 833",≥10%
same,% increase in SRB,[7]; 10 uM,≥10%
same,inhibition at 1 µM,"[7]; Homo sapiens, Fibroblast, 24 h, 1 uM, read-out: % decrease in Collagen III",≥ 10%
same,% increase in Proliferation,[8]; procedure of Example 832,≥10%
same,inhibition at 10 µM,"[8]; Homo sapiens, 24 h, read-out: % decrease in Thrombomodulin",≥ 10%
same,activation at 10 µM,[9],≥ 20%
same,% decrease in B-cell proliferation,[10],≥10%
same,activation at 1 µM,[11],≥ 20%
"COC(=O)/C=C/C(=O)SCCNC(=O)CCNC(=O)[C@H](O)C(C)(C)CO [Compound 20, Methyl (R,E)-4-((2-(3-(2,4-dihydroxy-3,3-dimethylbutanamido)propanamido)ethyl)thio)-4-oxobut-2-enoate]",inhibition at 10 µM,"[12]; Fibroblast, NPC1 GM22879",≥ 10%
same,inhibition at 10 µM,[12]; FXN GM04078,≥ 10%
same,% Increase OPC proliferation,[13],≥25%
